Laboratory results as given in US8350062B2, “Synthesis and anticancer activity of new actin-targeting small-molecule agents” (priority 2009, dated 2013).

Tests used:
[1] = tested on: non-small cell broncho-pulmonary carcinoma xenografts; conditions: mouse, in vivo; cited from earlier work
filamentous actin = filamentous actin (Oryctolagus cuniculus, UniProt P68135); assay: TIRF microscopy of actin filament severing and depolymerization; format: biochemical, rabbit; set-up: Actin was purified from rabbit muscle acetone powder; tissue Pel-Freez Biologicals (acetone powder); host or cells: rabbit muscle acetone powder
Excerpt: To gain further insight into the mode of action of bistramide A, we next investigated the interaction of the natural product and its analogs with filamentous actin. […] Similar observations have been reported for several other actin-binding natural products. However, this effect could provide only limited mechanistic information and may primarily reflect the binding of a small molecule to the filaments in close proximity to the dye and quenching of pyrene fluorescence, which could be independent of the rates of actin depolymerization. Some proteins like myosin and Actin Depolymerizing Factor (ADF)/Cofilin are known to do so. Total internal reflection fluorescence (TIRF) microscopy has recently emerged as a powerful tool to investigate actin filament dynamics and its regulation by several actin-binding proteins, as well as latrunculin A, which is […] depolymerizing filamentous actin in vitro. Thus, we decided to employ TIRF microscopy to observe in real time the effects of bistramide-based compounds on actin polymerization in vitro. We believe this is the first instance where TIRF microscopy has been utilized to study the severing of actin filaments by a small molecule. We polymerized G-actin containing 25% of tetramethylrhodamine-functionalized and 10% of biotin-functionalized actin. The resulting actin filaments were immobilized onto the streptavidin-coated glass slides (in a flow cell). Analogs 1-8 were flown through the flow cell and imaged by time-lapse TIRF microscopy.
Total Internal Reflection Fluorescence Microscopy. Actin filament severing was studied using a custom-built total internal reflection fluorescence microscope. Images were collected with a 100×, 1.45 NA objective (Olympus) and an EMCCD camera (iXon, Andor Technologies). Glass flow cell (6 μl volume) was washed with 0.25 mg/ml neutravidin in F-buffer (50 mM KCl, 1 mM MgCl2, 1 mM EGTA, 10 mM imidiazole, 2 mM ATP, 0.2 mM 2-mercaptoethanol, 2 min) and blocked with 1 mg/ml BSA in F-buffer (2 min). Ten microliters of 200 nM Mg^2+-F-actin (10% biotinylated, 25% labeled with maleimide-6-tetramethylrhodamine) in TIRF-buffer (50 mM KCl, 1 mM MgCl2, 1 mM EGTA, 10 mM imidiazole, 2 mM ATP, 4.5 mg/ml glucose, 0.5% 2-mercaptoethanol, 4.3 mg/ml glucose oxidase, 0.7 mg/ml catalase) was added to the flowcell and incubated for 2 min. The chamber was rinsed with TIRF-buffer and imaged. Compounds were freshly diluted from their DMSO stock solutions in TIRF-buffer and were added to the chamber immediately after the start of each experiment. Images were collected at 0.2-s exposures every 3 s for 200 frames. For kinetics studies, movies of suitable length were obtained for each of the analog concentrations. Analysis was performed using ImageJ.

A549 cells = assay: Cell viability assay (CellTiter-Glo), growth inhibition of A549 cells; format: cell-based, human; conditions: Homo sapiens, A549, 48 h, 48 h incubation
Description: Cell Viability Assays. All assays were performed using at least three replicate wells for each concentration tested. Original 10-25 mM DMSO stock solution of bistramide A or its analogs was diluted to 100 μM for analogs 4-8, 10 μM for analog 3, 5 μM for analog 2 and 1 μM for bistramide A (1) with F-12K cell culture media supplemented with 10% fetal bovine serum, 100 I.U./ml penicillin, 100 μg/ml streptomycin and 2 mM L-glutamine. Two-fold serial dilutions were performed and used for cell-based assays. A549 cells were grown in 96-well white plates at the density of 1,000 cells per well in 100 μl F-12K cell culture media. Cells were allowed to attach over 24 h and treated with 30 μl of the drug solution and incubated further for 48 h. After incubation, cell viability was determined using luminescence-based commercial kit (CellTiter-Glo, Promega) and luminescence measured using a Wallac Victor 3 plate reader. To measure cell growth inhibition, viability assays were performed twice: at initial time point T0 and after 48 h incubation (T48). Change in the number of viable cells was measured, and GI50 was calculated from sigmoidal plots. For analog 10, growth of A549 and PC3 cells was monitored over 96 h following addition of the drug. 100 μM was the highest concentration tested. At no point did the total DMSO conc. exceed 1%.

G-actin [2] = target: T1, G-actin (Oryctolagus cuniculus, UniProt P68135); assay: Interaction with actin by MALDI-TOF (covalent modification); format: biochemical, rabbit; conditions: 1:1 actin-drug complex, 30 min
T1 construct: Actin was purified from rabbit muscle acetone powder; tissue Pel-Freez Biologicals (acetone powder); host or cells: rabbit muscle acetone powder
Description: Interaction Of Bistramide-Based Compounds With Actin By MALDI-TOF. A 1:1 actin-drug complex was incubated for 30 min in 2 mM Tris-HCl, pH 8.0, 0.2 mM CaCl2, 0.01% NaN3, 0.2 mM ATP, 1 mM 2-mercaptoethanol, diluted with deionized water to 26 μM and mixed with an equal volume of a solution of 10 mg/ml sinapinic acid in 50% CH3CN— 0.1% TFA. MALDI spectra were obtained on a Voyager-DE PRO biospectrometry workstation.

F-actin in A549 cells = assay: Fluorescent visualization of F-actin in A549 cells (Alexa Fluor 488 phalloidin); format: cell-based, human; conditions: 2 h incubation
Description: The presence of the enone increased the severing efficiency of the analogs three-fold. […] We determined whether it was the depletion of actin filaments by analogs 2-5 which was responsible for the growth inhibition of A549 cells. Each of the compounds was incubated with A549 cells for 2 h at a concentration that exceeded the GI50 value by a factor of 5. The cells were then fixed, permeabilized and filamentous actin was visualized by fluorescence microscopy following Alexa Fluor 488 phalloidin staining. […] They induced depolymerization at 150 nM for bistramide A (1), 500 nM for analog 2 and 2 μM for analog 3. Analogs 4 and 5 induced depolymerization of actin only at concentrations as high as 100 μM. […] This observation was consistent with the enhanced cell-based activity of the compounds containing the C(1)-C(4) enone moiety.
Fluorescent Visualization Of F-Actin In Cells. A549 cells grown on coverslips were incubated with analogs 4-8 (100 μM) analog 3 (2 μM) or analog 2 (500 nM) or bistramide A (150 nM) in F-12K cell culture medium for 2 h, fixed with 3% formaldehyde in PBS at 25° C. for 5 min and permeabilized with 0.1% Triton X-100 at 25° C. for 10 min. After washing with PBS, coverslips were stained with Alexa Fluor 488 Phalloidin and visualized by fluorescence microscopy.

G-actin [3] = target: T1, G-actin; assay: Isothermal titration calorimetry, binding to monomeric actin; set-up: species or system rabbit
Description: Isothermal Titration Calorimetry. A solution of rabbit skeletal muscle actin (5-10 μM) was titrated with bistramide A or its analog (50-100 μM) at 25° C. in buffer containing 2 mM Tris HCl, pH 8.0, 0.2 mM CaCl2, 0.01% NaN3, 0.2 mM ATP, 0.2 mM 2-mercaptoethanol. Dissociation constants were calculated from the binding curve using Origin analytical software (OriginLab) with the binding model involving a single set of identical sites

[4] = mouse, in vivo; cited from earlier work

## C/C=C/C(=O)C[C@@H]1CCC(C)C(CC(=O)NC[C@H](O)[C@H](C)C(=O)NCCC[C@H]2O[C@@]3(CCC[C@@H](CC[C@H](C)/C=C(\C)C(C)O)O3)CCC2C)O1 (some centres unmarked) [Bistramide A (1), bistramide A, reference compound]
[1]
  inhibition of tumor growth in xenograft model: ineffective at reducing tumor growth
Filamentous actin; 750 nM
  effect on filamentous actin: rapid filament depletion
Filamentous actin; compound at 0.75 μM
  No. of breaks per 100 μm: 40.4 per 100 μm
Filamentous actin; compound at 0.75 μM, standard deviations 0.1-0.3 subunits/s
  Pointed-end depolymerization rate: 0.49 subunits/s
Filamentous actin; compound at 0.75 μM, standard deviations 0.4-0.6 subunits/s
  Barbed-end depolymerization rate: 1.88 subunits/s
A549 cells
  GI50: 20 nM
A549 cells; values of the text
  GI50: 20.4 nM
G-actin [2]
  covalent modification of G-actin: covalently modified G-actin
F-actin in A549 cells
  concentration inducing actin depolymerization in A549 cells: 150 nM
G-actin [3]
  Kd: 7 nM
[4]
  general toxicity: high general toxicity
